Columns and labels:
[1] = MMV: MTT Cytotoxicity Assay Day 7 pi of Assay #6 (compound washed out Day 1 pi), U87-CD4-CCR5 cells, % cell death @ 5mM compound; assay type: toxicity, cell-based; details: human, u87-cd4-ccr5, 5000 µM
[2] = MMV: MTT Cytotoxicity Assay Day 7 pi of Assay #11 (NO washout), U87-CD4-CXCR4 cells, % cell death @ 5mM compound; assay type: toxicity, cell-based; details: human, u87-cd4-cxcr4, 5000 µM
[3] = MMV: MTT Cytotoxicity Assay Day 3 pi, U87-CD4-CCR5 cells, % cell death @ 5mM compound; assay type: toxicity, cell-based; details: human, u87-cd4-ccr5, 5000 µM
[4] = system: Human immunodeficiency virus 1; assay: MMV: HIV CXCR4-tropic env HxB2 pseudovirus assay produces luciferase signal in lieu of replicating viral particles Day 3 pi, U87-CD4-CXCR4, % inhibition at 5 mM compound; assay type: functional; set-up: dose or concentration left out as unconfirmed; details: Human immunodeficiency virus 1, HxB2, U87.CD4.CXCR4, 72 h
[5] = MMV: MTT Cytotoxicity Assay Day 3 pi, U87-CD4-CXCR4 cells, % cell death @ 5mM compound; assay type: toxicity, cell-based; details: human, u87-cd4-cxcr4, 5000 µM
[6] = MMV: MTT Cytotoxicity Assay Day 7 pi of Assay #7 (compound washed out Day 1 pi), U87-CD4-CXCR4 cells, % cell death @ 5mM compound; assay type: toxicity, cell-based; details: human, u87-cd4-cxcr4, 5000 µM
[7] = MMV: MTT Cytotoxicity Assay Day 7 pi of Assay #10 (NO washout), U87-CD4-CCR5 cells, % cell death @ 5mM compound; assay type: toxicity, cell-based; details: human, u87-cd4-ccr5, 5000 µM
[8] = system: Human immunodeficiency virus 1; assay: MMV: HIV JRFL CCR5-tropic replication-competent virus, virus & compound washed out Day 1 pi, P24 ELISA Day 7 pi, U87-CD4-CCR5, % inhibition at 5 mM compound; assay type: functional; set-up: dose or concentration left out as unconfirmed; details: Human immunodeficiency virus 1, JR-FL
[9] = system: Human immunodeficiency virus 1; assay: MMV: HIV CXCR4-tropic env NL4-3 pseudovirus assay produces luciferase signal in lieu of replicating viral particles Day 3 pi, U87-CD4-CXCR4, % inhibition at 5 mM compound; assay type: functional; set-up: dose or concentration left out as unconfirmed; details: Human immunodeficiency virus 1, NL4-3, U87.CD4.CXCR4, 72 h

| SMILES | % Cell Death [1] | % Cell Death [2] | % Cell Death [3] | inhibition [4] [%] | % Cell Death [5] | % Cell Death [6] | % Cell Death [7] | inhibition [8] [%] | inhibition [9] [%] |
| --- | --- | --- | --- | --- | --- | --- | --- | --- | --- |
| CCCCCCn1c(=N)n(CC(O)COc2cccc(C)c2)c2ccccc21.Cl (stereo not given) | 33 | 50 | 43 | 2 | 17 | -16 | 71 | – | – |
| CC(C)(C)c1ccc(C2CC3=Nc4ccccc4N(C(=O)c4ccccc4Cl)C(c4ccc(F)cc4)C3=C(O)C2)cc1 (stereo not given) | 8 | 5 | -12 | -1 | 31 | 17 | 28 | – | – |
| Cc1cc(NC(=O)C2c3ccccc3C(=O)N(CC(C)C)C2c2cccs2)no1 (stereo not given) | 55 | -16 | 23 | – | 26 | -20 | 36 | 7 | 8 |
| COc1ccc(-c2nc3cc(Cc4ccc5[nH]c(-c6ccc(OC)cc6)nc5c4)ccc3[nH]2)cc1 | -21 | 6 | -6 | 1 | 23 | -21 | 4 | – | – |
| CCc1ccc(Nc2cc(C)nc3nc(C)nn23)cc1 | 4 | 93 | 23 | 6 | 46 | 4 | 50 | – | – |
| CC1CC(C)CN(C(=O)c2ccc(Cl)cc2Cl)C1 (stereo not given) | -14 | -51 | -5 | – | 31 | -16 | -31 | 5 | -1 |
| Cc1ccc(C2CC(C(F)(F)F)n3nc(C(=O)N4CCN(C(c5ccccc5)c5ccccc5)CC4)cc3N2)cc1 (stereo not given) | 77 | 58 | 86 | 5 | 64 | 62 | 75 | – | – |
| Cc1cc(NCCN2CCCCC2)c2ccc3ccccc3c2n1 | 30 | 5 | 64 | 1 | 34 | 16 | 31 | – | – |
| CCC(c1ccccc1)c1nn2c(-c3cccs3)nnc2s1 (stereo not given) | 18 | 73 | 3 | – | 41 | 28 | 41 | 0 | 9 |
| COc1ccc(-c2cc3c(SCC(=O)Nc4cc(C(F)(F)F)ccc4Cl)nccn3n2)cc1 | 5 | 13 | 24 | 6 | 41 | -22 | 18 | – | – |
| COc1ccc2c(=O)cc(C(Cl)(Cl)Cl)oc2c1 | 23 | 95 | 90 | 8 | 41 | 23 | 100 | – | – |
| CCC1(C)CC(CCNCc2ccccc2O)(c2ccc(C)cc2)CCO1 (stereo not given) | 9 | 19 | -22 | 0 | 14 | 0 | 27 | – | – |
| CCOC(=O)c1cnc2ccc(OC)cc2c1NCc1ccccc1 | -10 | 46 | -52 | -2 | 36 | 12 | -9 | – | – |
| O=C(Nc1ccsc1C(=O)NC1CCCCC1)c1ccc(F)cc1 | -4 | -14 | -22 | – | 8 | -43 | -2 | -2 | 3 |
| CCOC(=O)c1c[nH]c2c(CC)cccc2c1=O | 36 | 35 | 39 | – | 76 | 14 | -1 | 8 | 7 |
| CCOC(=O)C1=C(C)N=c2sc(=Cc3ccccc3O)c(=O)n2C1c1ccc(OC)c2ccccc12 (stereo not given) | 40 | 113 | 105 | -1 | 42 | 66 | 90 | – | – |
| COc1ccc(/C=C2/SC(=Nc3ccccc3)NC2=O)cc1 | 93 | 66 | 54 | 3 | 28 | 77 | 115 | – | – |
| CCC(C)NCC(O)(c1ccc(Cl)cc1)c1ccc(Cl)cc1 (stereo not given) | -11 | 3 | -1 | – | 23 | -33 | 31 | -2 | 2 |
| COc1ccc(C(=O)C2CC2c2ccc(Cl)cc2)cc1 (stereo not given) | 6 | 35 | 40 | – | 29 | 66 | 32 | 3 | -2 |
| Cc1ccc(C)c(Cn2c(N3CCC(C(=O)NCc4cccs4)CC3)nc3ccccc32)c1 | 57 | 47 | 108 | 7 | 38 | 2 | 98 | – | – |
| COc1ccc(C=C2SC(Nc3ccc(F)cc3)=NC2=O)c(OC)c1 | -49 | 65 | 25 | 4 | 28 | 0 | 96 | – | – |
| COc1ccc(C2NCCc3c2[nH]c2ccccc32)cc1CN1CCN(c2ccc(F)cc2)CC1.Cl (stereo not given) | 24 | -62 | 27 | – | 35 | -8 | 14 | – | 3 |
| COc1ccccc1NC1=C(N2CCCCC2)C(=O)c2ccccc2C1=O | 22 | -50 | 34 | – | 15 | 8 | 19 | 1 | 5 |
| CSc1ccccc1C(=O)Nc1nc(-c2ccccn2)cs1 | 18 | 2 | 28 | – | 86 | 28 | 3 | – | 4 |
| CCOc1cc2c(cc1OCC)C(c1cc(OC)c(O)cc1Cl)NCC2 (stereo not given) | 7 | 20 | 31 | – | 1 | -19 | 25 | – | 10 |
| COc1cccc(NC(=O)[C@H](C(C)C)n2c(=O)[nH]c3ccccc3c2=O)c1 | 24 | 7 | 24 | – | 20 | 5 | 27 | – | 0 |

— ChEMBL document CHEMBL3301472, “MMV Malaria Box HIV and cytotoxicity screening”
